{"source": "patent US11690813B2", "about": "“Aminothiol reduction of ischemia-reperfusion-induced cell death” (OBVIA PHARMACEUTICALS LTD, priority 2018, dated 2023)", "key": {"[1]": {"conditions": "humans; cited from earlier work"}, "[2]": {"conditions": "in vivo"}, "irradiated skin": {"test_system": "irradiated skin", "assay_type": "in vivo, rat"}, "[3]": {"conditions": "rat, in vivo"}, "cardiac muscle": {"test_system": "cardiac muscle", "conditions": "mouse, in vivo, ip"}, "[4]": {"conditions": "mouse, in vivo"}, "[5]": {"set-up": "species or system mice", "conditions": "mouse, in vivo"}, "[6]": {"test_system": "serum blood urea nitrogen (BUN)", "conditions": "mouse, in vivo, ip"}, "physchem": {"assay": "physchem", "conditions": "buffer, pH 7.2"}, "[7]": {"test_system": "primary neonate cardiac myocytes", "assay_type": "cell-based, mice"}, "[8]": {"test_system": "Caspase 3 and 7 activity in kidney homogenate supernates", "conditions": "mouse, in vivo, ip"}, "pUC19 plasmid DNA [9]": {"test_system": "pUC19 plasmid DNA", "assay_type": "biochemical"}, "pUC19 plasmid DNA [10]": {"test_system": "pUC19 plasmid DNA", "assay": "x-irradiation ROS-induced nicking of pUC19 plasmid DNA", "assay_type": "biochemical"}, "human blood lymphocytes": {"test_system": "human blood lymphocytes", "assay_type": "cell-based"}, "[11]": {"conditions": "mouse, in vivo", "remark": "listed apart in the source"}, "[12]": {"conditions": "rats; cited from earlier work"}, "[13]": {"conditions": "added 15 min before 90 Gy x-irradiation over 30 min"}}, "note": "Values joined by “and” are separate entries in the source; they are usually repeats but may differ in a detail not shown here. Equal values may be shown once. Read-outs that look alike come from different tables or passages of the source.", "data": [{"smiles": "NCCCNCCSP(=O)(O)O", "note": "[Amifostine, amifostine]", "values": [{"measurement": "hypotension/fainting side effects", "setting": "[1]", "result": "hypotension/fainting side effects"}, {"measurement": "nausea/emesis side effects", "setting": "[1]", "result": "severe nausea/emesis side effects"}, {"measurement": "retching and emesis responses", "setting": "[2]", "result": "significant bouts of both retching and emesis"}, {"measurement": "Ionizing Radiation-ROS-Induced Dermatitis (% Clear Skin)", "setting": "irradiated skin; Topical 100 mM, day 13", "result": 0, "unit": "% Clear Skin"}, {"measurement": "blood pressure response to challenge dose of IP epinephrine after drug", "setting": "[3]", "result": "no discernible effect upon blood pressure"}, {"measurement": "effect on blood pressure", "setting": "[3]; ip", "result": "immediate and irreversible drop in blood pressure"}, {"measurement": "ocular toxicity associated with chronic hypotension", "setting": "[3]; ip", "result": "discernible ocular phenotype/toxicity"}]}, {"smiles": "CNCC(CS)CNC", "note": "[PrC-210]", "values": [{"measurement": "reduction in percentage of total cardiac muscle stained as dead-tissue", "setting": "cardiac muscle", "result": 36, "unit": "%"}, {"measurement": "IP maximum tolerated dose (MTD)", "setting": "[4]", "result": 504, "unit": "ug/gm body weight"}, {"measurement": "suppression of radiation-induced death", "setting": "[5]", "result": "complete suppression"}, {"measurement": "survival against otherwise 100% lethal dose of radiation", "setting": "[5]", "result": 100, "unit": "%"}, {"measurement": "reduction in serum blood urea nitrogen (BUN) level", "setting": "[6]", "result": "like reduction"}, {"measurement": "half-life", "setting": "physchem", "result": 3.5, "unit": "h"}, {"measurement": "retching and emesis responses", "setting": "[2]; ferret", "result": "none of the 10 ferrets"}, {"measurement": "H2O2-induced cell death eliminated", "setting": "[7]", "result": "~80", "unit": "%"}, {"measurement": "reduction in level of kidney caspase", "setting": "[8]", "result": 84, "unit": "%"}, {"measurement": "reduction in level of kidney caspase at 0.24 MTD", "setting": "[8]", "result": "highly significant reductions"}, {"measurement": "reduction in level of kidney caspase over dose range", "setting": "[8]", "result": "dose-dependent reduction"}, {"measurement": "suppression of .OH-induced ROS DNA damage", "setting": "pUC19 plasmid DNA [9]", "result": "complete suppression"}, {"measurement": "suppression of ROS-induced damage to plasmid DNA", "setting": "pUC19 plasmid DNA [10]", "result": "dose-dependent suppression"}, {"measurement": "suppression of pUC19 DNA damage", "setting": "pUC19 plasmid DNA [10]", "result": 90, "unit": "%"}, {"measurement": "suppression of γ-H2AX foci formation", "setting": "human blood lymphocytes", "result": "highly significant"}, {"measurement": "PrC-210 thiol blood concentration", "setting": "[11]", "result": 3, "unit": "mM"}, {"measurement": "plasma/blood concentrations of PrC-210 thiol associated with protection", "setting": "[11]", "result": "1 to 3", "unit": "mM"}, {"measurement": "Ionizing Radiation-ROS-Induced Dermatitis (% Clear Skin)", "setting": "irradiated skin; rat, in vivo", "result": 100, "unit": "% Clear Skin"}, {"measurement": "Ionizing Radiation-ROS-Induced Dermatitis (% Clear Skin)", "setting": "irradiated skin; rat, in vivo, ip", "result": 100, "unit": "% Clear Skin"}, {"measurement": "half-life of the thiol", "setting": "buffer, pH 7.2", "result": 3.5, "unit": "h"}, {"measurement": "conversion to disulfide form", "setting": "pH 6", "result": "no discernible conversion"}, {"measurement": "blood pressure response to challenge dose of IP epinephrine after drug", "setting": "[3]", "result": "robust increase in blood pressure"}, {"measurement": "effect on blood pressure", "setting": "[3]; ip", "result": "no reduction in blood pressure"}]}, {"smiles": "NCC(CN)CS", "note": "[PrC-211]", "values": [{"measurement": "IP maximum tolerated dose (MTD)", "setting": "[4]", "result": 500, "unit": "ug/gm body weight"}, {"measurement": "reduction in level of kidney caspase at 0.24 MTD", "setting": "[8]", "result": "highly significant reductions"}, {"measurement": "Ionizing Radiation-ROS-Induced Dermatitis (% Clear Skin)", "setting": "irradiated skin; rat, in vivo", "result": "55 % Clear Skin and 100 % Clear Skin"}, {"measurement": "Ionizing Radiation-ROS-Induced Dermatitis (% Clear Skin)", "setting": "irradiated skin; rat, in vivo, ip", "result": 87, "unit": "% Clear Skin"}]}, {"smiles": "NCCCNCCS", "note": "[WR-1065, reference compound]", "values": [{"measurement": "hypotension side effects", "setting": "[12]", "result": "hypotension side effects"}, {"measurement": "suppression of ROS-induced damage to plasmid DNA", "setting": "pUC19 plasmid DNA [10]; [13]", "result": "dose-dependent suppression"}]}, {"smiles": "NCCS", "note": "[cysteamine, reference compound]", "values": [{"measurement": "suppression of ROS-induced damage to plasmid DNA", "setting": "pUC19 plasmid DNA [10]; [13]", "result": "dose-dependent suppression"}]}, {"smiles": "CN(C)C(=O)C(CCN1CCC(O)(c2ccc(Cl)cc2)CC1)(c1ccccc1)c1ccccc1", "note": "[loperamide]", "values": [{"measurement": "retching and emesis responses", "setting": "[2]", "result": "strong retch and emesis responses"}]}]}
